Measured values from patent US8080423B2, “Reagent containing protease reaction promoter and/or colorant stabilizer” (Asahi Kasei Pharma Corporation, priority 2004, dated 2011).
Values joined by “and” are separate entries in the source; they are usually repeats but may differ in a detail not shown here. Identical values can stand only once. Like-named read-outs stand apart in the source and are kept apart here.

Tests used:
[1] = test system: Neutral protease (manufactured by Toyobo Co., Ltd.); experiment: Screening of protease reaction promoter (Example 1); assay type: biochemical; details: for protease reaction promoting effect (in words): judged from Table 1
Method: 1) R-1: Reagent for Protein Decomposition
2) R-2: Reagent for Glycated Amino Acid Detection
The following substances were independently used as a test sample. Note that concentrations described in parentheses each represent a final concentration of the substance in the reagent R1.
Absorbance before the addition of the reagent R-2 and 5 minutes after the addition was measured at 660 nm. […] The AH-AL shown in Table 1 is a difference obtained by subtracting absorbance AL which was obtained from the primary calibrator at level 2 (5.38%) from absorbance AH which was obtained from the primary calibrator at level 4 (9.88%). Here, if AH-AL is large, the sample is judged to have a protease reaction promoting effect. In particular, when AH-AL is 20 or more, the sample has an excellent promoting effect.

[2] = Screening of stabilizer for colorant, MBTH-TOOS (Example 13); assay type: physicochemical
[3] = Screening of stabilizer for colorant, DA67 (Example 13); assay type: physicochemical
Method: (§1) The following substances were used as test samples. Note that concentrations described in parentheses each represent a final concentration of the substance in the reagent R-1.
(§2) Tween-20 (1%), Brij35 (1%), Triton X-100 (1%), deoxycholic acid (1%), imino-diacetic acid (IDA; 1 mM), ZnSO4 (0.1 mM), AlCl3 (0.1 mM), potassium ferrocyanate (0.01 mM), sorbitol (5%), glucose (5%), sodium nitrite (2 mM), dimethylsulfoxide (DMSO; 10%) (those substances are manufactured by Wako Pure Chemical Industries, Inc.), 2-hydroxypropyl-β-cyclodextrin (2HP β CD; 0.5%, 2%, 5%) and methyl-β-cyclodextrin (M β CD; 0.5%, 2%, 5%) (those substances are manufactured by Nihon Shokuhin Kako Co., Ltd.).
(§3) 500 μl of the R-1 reagent and 500 μl of the R-2 which had been incubated to 37° C. were mixed. The mixture was incubated to 37° C. for 2 minutes, and absorbance thereof (A0) was measured. The mixture was added with 10 μl of 500 μM hydrogen peroxide or distilled water. The whole was incubated to 37° C., and absorbance exactly 5 minutes after the addition of hydrogen peroxide (A1) was measured, to calculate a change in absorbance ΔA (A1-A0). The absorbance was measured using a wavelength of 750 nm when DA64 was used as the colorant, a wavelength of 660 nm when DA67 was used as the colorant, and a wavelength of 570 nm when 4-AA-TOOS was used as the colorant.
(§4) Immediately after the preparation of the reagent, the reagent was preserved at 37° C. for 2 days and 9 days, and measurement of sensitivity of a blank which was distilled water and of hydrogen peroxide was performed.

[4] = Screening of stabilizer for colorant, DA64 (Example 13); assay type: physicochemical; details: DA-64, 750 nm, 37° C., additives at conc. (1%; IDA 1 mM; Zn, Al 0.1 mM; ferrocyanide 0.01 mM; sorbitol 5%; DMSO 10%)
Method: as §1, §2, §3, §4

[5] = test sample 2 mM in R-1, 660 nm
[6] = test sample 1% in R-1, 660 nm, 20 or more = excellent promoting effect
[7] = MBTH-TOOS, 570 nm, 37° C., 0 days, additives at conc. (1%; IDA 1 mM; Zn, Al 0.1 mM; ferrocyanide 0.01 mM; sorbitol 5%; DMSO 10%)
[8] = MBTH-TOOS, 570 nm, 37° C., 2 days, additives at conc. (1%; IDA 1 mM; Zn, Al 0.1 mM; ferrocyanide 0.01 mM; sorbitol 5%; DMSO 10%)
[9] = DA-67, 660 nm, 37° C., 0 days, additives at conc. (1%; IDA 1 mM; Zn, Al 0.1 mM; ferrocyanide 0.01 mM; sorbitol 5%; DMSO 10%)
[10] = DA-67, 660 nm, 37° C., 2 days, additives at conc. (1%; IDA 1 mM; Zn, Al 0.1 mM; ferrocyanide 0.01 mM; sorbitol 5%; DMSO 10%)

Compound | AH (absorbance from primary calibrator at level 4 (9.88%)) ([1]; test sample 1% in R-1, 660 nm) | AL (absorbance from primary calibrator at level 2 (5.38%)) ([1]; test sample 1% in R-1, 660 nm) | AH − AL [1, 6] | protease reaction promoting effect (in words) [1] | other results
O=[N+]([O-])c1ccc(-[n+]2nc(-c3ccc(S(=O)(=O)O)cc3S(=O)(=O)O)nn2-c2ccc(I)cc2)c([N+](=O)[O-])c1 [WST-3, 2-(4-iodophenyl)-3-(2,4-dinitrophenyl)-5-(2,4-disulfophenyl)-2H-tetrazolium, reference compound] | – | – | – | – | AH (absorbance from primary calibrator at level 4 (9.88%)) [1, 5]: 184.6; AH − AL [1, 5]: 23.7 mAbs; AL (absorbance from primary calibrator at level 2 (5.38%)) [1, 5]: 160.9
C[C@H](CCC(=O)NCCC[N+](C)(C)CCCS(=O)(=O)[O-])[C@H]1CC[C@H]2[C@@H]3[C@H](O)C[C@@H]4C[C@H](O)CC[C@]4(C)[C@H]3C[C@H](O)[C@]12C [CHAPS, 3-[(3-cholamidopropyl)dimethyl-ammonio]propanesulfonic acid, reference compound] | 111.4 | 104.5 | 6.9 mAbs | – | –
CCCCCCCCCCCC(=O)N(C)CCS(=O)(=O)[O-].[Na+] [LMT, sodium N-lauroyl methyl taurinate] | 102.4 | 73.0 | 29.4 mAbs | effects were observed | –
C[S+](C)[O-] [Dimethylsulfoxide, dimethylsulfoxide, reference compound] | – | – | – | – | blank (distilled water) change in absorbance [2, 7]: 0.149 Abs; blank (distilled water) change in absorbance [2, 8]: 1.134 Abs; AH (absorbance from primary calibrator at level 4 (9.88%)) ([1]; test sample 10% in R-1, 660 nm): 63.0; AH − AL ([1]; test sample 10% in R-1, 660 nm): 3.4 mAbs; AL (absorbance from primary calibrator at level 2 (5.38%)) ([1]; test sample 10% in R-1, 660 nm): 59.6; blank (distilled water) change in absorbance [3, 9]: 0.088 Abs; blank (distilled water) change in absorbance [3, 10]: 2.103 Abs; blank (distilled water) change in absorbance ([4]; 0 days): −0.005 Abs; blank (distilled water) change in absorbance ([4]; 2 days): 0.085 Abs; blank (distilled water) change in absorbance ([4]; 9 days): 0.233 Abs
OC[C@@H](O)[C@@H](O)[C@H](O)[C@@H](O)CO [Sorbitol, sorbitol, reference compound] | – | – | – | – | blank (distilled water) change in absorbance [2, 7]: 0.151 Abs; blank (distilled water) change in absorbance [2, 8]: 1.225 Abs; AH (absorbance from primary calibrator at level 4 (9.88%)) ([1]; test sample 5% in R-1, 660 nm): 68.3; AH − AL ([1]; test sample 5% in R-1, 660 nm): 6.5 mAbs; AL (absorbance from primary calibrator at level 2 (5.38%)) ([1]; test sample 5% in R-1, 660 nm): 61.8; blank (distilled water) change in absorbance [3, 9]: 0.093 Abs; blank (distilled water) change in absorbance [3, 10]: 2.545 Abs; blank (distilled water) change in absorbance ([4]; 0 days): −0.010 Abs; blank (distilled water) change in absorbance ([4]; 2 days): 0.080 Abs; blank (distilled water) change in absorbance ([4]; 9 days): 0.230 Abs
triethanolamine polyoxyethylene(3)alkyl ether sulfate [SBL-203-27] | 112.1 | 84.3 | 27.8 mAbs | effects were observed | –
O=NO [Sodium nitrite, sodium nitrite, reference compound] | – | – | – | – | AH (absorbance from primary calibrator at level 4 (9.88%)) [1]: 107.9; AH − AL [1]: 26.2 mAbs; AL (absorbance from primary calibrator at level 2 (5.38%)) [1]: 81.7
CCCCCCCCCCCCOCCOCCOS(=O)(=O)O.OCCN(CCO)CCO [SBL-2T-36, triethanolamine polyoxyethylene(2)lauryl ether sulfate] | 93.3 | 65.3 | 28.0 mAbs | effects were observed | –
CCCCCCCCCCCCOS(=O)(=O)[O-].[Na+] [SLS, sodium lauryl sulfate, reference compound] | 53.3 | 48.7 | 4.6 mAbs | – | –
Cc1cc2nc3c(=O)[nH]c(=O)nc-3n(C[C@H](O)[C@H](O)[C@H](O)COP(=O)(O)OP(=O)(O)OC[C@H]3O[C@@H](n4cnc5c(N)ncnc54)[C@H](O)[C@@H]3O)c2cc1C [FAD, flavin adenine dinucleotide, reference compound] | – | – | – | – | AH (absorbance from primary calibrator at level 4 (9.88%)) [1, 5]: 46.2; AH − AL [1, 5]: 0.7 mAbs; AL (absorbance from primary calibrator at level 2 (5.38%)) [1, 5]: 45.5
CCCCCCCCCCCCOCCOCCOCCOCCOS(=O)(=O)O.OCCN(CCO)CCO [SBL-4T, triethanolamine polyoxyethylene(4)lauryl ether sulfate] | 103.2 | 75.2 | 28.0 mAbs | effects were observed | –
CCCCCCCCCCCCCOCCOCCOCCOCCOCCOCCOCC(=O)[O-].[Na+] [ECTD-6NEX, sodium polyoxyethylene(6)tridecyl ether acetate] | 82.9 | 53.4 | 29.5 mAbs | effects were observed | –
CCCCCCCCCCCCOP(=O)(O)O [Phosten HLP, lauryl phosphate] | 134.6 | 121.9 | 12.7 mAbs | – | –
CCCCCCCCCCCC[N+](C)(C)CC(=O)[O-] [AM-301, betaine lauryl dimethylaminoacetate] | 122.0 | 109.9 | 12.1 mAbs | – | –
Nc1ncnc2c1ncn2[C@@H]1O[C@H](COP(=O)(O)OP(=O)(O)OP(=O)(O)O)[C@@H](O)[C@H]1O [ATP, adenosine 5′-triphosphate, reference compound] | – | – | – | – | AH (absorbance from primary calibrator at level 4 (9.88%)) [1, 5]: 57.8; AH − AL [1, 5]: 3.6 mAbs; AL (absorbance from primary calibrator at level 2 (5.38%)) [1, 5]: 54.2
sodium cocoyl sarcosinate [Sarcosinate CN-30] | 106.2 | 76.6 | 29.6 mAbs | effects were observed | –
[Cl][Al]([Cl])[Cl] [AlCl3] | – | – | – | – | blank (distilled water) change in absorbance [2]: 0.045 Abs and 0.055 Abs and 0.058 Abs; change in absorbance when 500 μM of hydrogen peroxide was measured [2]: 0.005 and 0.009; AH (absorbance from primary calibrator at level 4 (9.88%)) [1]: 60.7; AH − AL [1]: 5.6 mAbs; AL (absorbance from primary calibrator at level 2 (5.38%)) [1]: 55.1
sodium polyoxyethylene(3)tridecyl ether acetate [ECTD-3NEX] | 95.8 | 68.3 | 27.5 mAbs | effects were observed | –
O=S(=O)([O-])[O-].[Zn+2] [ZnSO4, reference compound] | – | – | – | – | blank (distilled water) change in absorbance [2]: 0.050 Abs and 0.049 Abs and 0.055 Abs; change in absorbance when 500 μM of hydrogen peroxide was measured [2]: 0.003; AH (absorbance from primary calibrator at level 4 (9.88%)) [1]: 145.7; AH − AL [1]: 1.6 mAbs; AL (absorbance from primary calibrator at level 2 (5.38%)) [1]: 144.1; blank (distilled water) change in absorbance [3]: 0.051 Abs and 0.062 Abs and 0.050 Abs
monostearate polyoxyethylene(15)glyceryl [TMGS-15] | 92.0 | 82.2 | 9.8 mAbs | – | –
